Laboratory results reported in patent US20080200539A1, “Topical antifungal treatment” (priority 2002, published 2008).

Tests used:
[1] = pH of triacetin when applied to the skin; format: physicochemical
Excerpt: Triacetin also acts to decrease the pH of the application area It is known that fungus like moist areas and thrive in environments with a normal acidity, pH 6.5 to 7.2. Yeasts die in low pH environments, i.e. pH levels in the range of 4.5 or less, and infectious fungi are adversely affected in low pH environments. Triacetin has a pH of 4.0 when applied to the skin, and effectively lowers the pH of the application area. As triacetin breaks down after application, it produces acetic acid, a weak antifungal agent. Triacetin also acts to lower the moisture content in the application area, which aids in creating an adverse environment for fungal growth. In high concentrations, such as in this preparation, triacetin reduces the secretion of moisture during perspiration, due to an astringent effect, or antihyperhydrosis effect. Triacetin also acts to reduce moisture by bonding with the moisture available in the affected area, reducing the opportunity or availability of the moisture to be utilized by the fungal cells. After application, triacetin also coats the application area, saturating the epidermis and limiting moisture available for fungal growth. Finally, triacetin can also be used for nutritional support whether administered orally, topically or intravenously, to restore healthy, normal skin as is seen with the topical administration of this preparation.

[2] = system: superficial fungal infections of the skin; conditions: used alone; previous clinical studies by others; cited from earlier work
[3] = system: nails infected by dermatophytes; conditions: cited from earlier work
Trichophyton rubrum = conditions: cited from earlier work
[4] = system: Trichophyton schoenleinii; conditions: cited from earlier work
Microsporum japonicum = conditions: cited from earlier work
Epidermophytom flocossum = conditions: cited from earlier work
Microsporum gypseum = conditions: cited from earlier work
Microsporum audouini = conditions: cited from earlier work
Trichophyton tonsurans = conditions: cited from earlier work
Microsporum canis = conditions: cited from earlier work
[5] = system: Trichophyton mentagrophytes; conditions: cited from earlier work
Aspergillis niger = conditions: cited from earlier work
[6] = Topical vitamin A on surgical incision area in post surgical patients; format: in vivo; conditions: 50,000 international units applied topically
Excerpt: Vitamin A is a fat soluble vitamin that is used in a wide dosage range from 5 to 50,000 I.U. to assist in healing. […] Vitamin A is also important for nutritional support. Vitamin D is also a fat soluble vitamin utilized in nutritional support. Vitamin D is not recommended in doses of over 6000 International Units per day. Topical applications with vitamin A and D have been used for years to enhance healing and repair damaged skin.

CC(=O)OCC(COC(C)=O)OC(C)=O [Triacetin]
pH [1]: 4.0
effectiveness as an antifungal agent [2]: only mildly effective

CN(C/C=C/C#CC(C)(C)C)Cc1cccc2ccccc12 [terbinafine]
duration of continuous daily intake needed to show some efficacy [3]: three months or more

Cc1cccc(N(C)C(=S)Oc2ccc3ccccc3c2)c1 [tolnaftate]
in vitro activity (Trichophyton rubrum): fungistatic or fungicidal
in vitro activity [4]: fungistatic or fungicidal
in vitro activity (Microsporum japonicum): fungistatic or fungicidal
in vitro activity (Epidermophytom flocossum): fungistatic or fungicidal
in vitro activity (Microsporum gypseum): fungistatic or fungicidal
in vitro activity (Microsporum audouini): fungistatic or fungicidal
in vitro activity (Trichophyton tonsurans): fungistatic or fungicidal
in vitro activity (Microsporum canis): fungistatic or fungicidal
in vitro activity [5]: fungistatic or fungicidal
activity against Aspergillis niger (Aspergillis niger): varies from one strain to another

Vitamin A
healing time [6]: improved healing time
